# Key:
# PANC-1/IDX-1 cells [1] = assay: Immunocytochemistry and immunofluorescence for insulin, PANC-1/IDX-1 cells; type: cell-based, human; conditions: GLP-1 10 nM, 72 h
# Protocol: (§1) PANC-1 cells were transfected with a pcDNA3 construct (Invitrogen; Carlsbad, Calif.) harboring the wild-type full-length IDX-1 cDNA using LipoTAXI (Catalog N. 204110; Mammalian Transfection Kit, Stratagene; La Jolla, Calif.). Control cells were transfected with the vector alone. The selection of positive (i.e. transfected) cells was carried out by culturing the cells in the presence of 400 μg/ml of G418 sulfate (GN-04, Omega; Tarzana, Calif.).
# (§2) Cells were cultured on monocoated chamber slides (Nalge Nunc International; Naperville, Ill.) in the presence of GLP-1 (10 nM), or vehicle, for 72 h.
# For the detection of insulin, cells were washed and fixed with 3% paraformaldehyde for 4 h, at room temperature in PBS, solubilized with 0.1% (vol/vol) Triton X-100 in PBS for 5 min. Cells were then incubated sequentially with an anti-insulin antibody and a secondary antibody, as described by the manufacturer (Biomeda Corp.; Foster City, Calif.). The cells were examined using a Ziess Axiophoto microscope (New York, N.Y.).
# Insulin immunofluoresce, for co-immunostaining with IDX-1, was carried on using the […], while the secondary antibody was a goat anti-guinea pig IgG (Molecular Probes, Inc.). The cells were examined using a using a fluorescent microscope (E-800; Nikon, Tokyo).
# ARIP cells [2] = assay: Morphological changes (hematoxylin and eosin), ARIP cells; type: cell-based, rat; conditions: GLP-1 10 nM for 72 h
# Description: (§3) Hematoxylin and eosin staining was employed, in some experiments, to show the morphological changes observed under the experimental conditions described below.
# ARIP cells [3] = assay: RT-PCR of islet β-cell specific transcripts, ARIP cells; type: cell-based, rat
# Protocol: After the treatment of ARIP and PANC-1 cells with GLP-1, Exendin-9, or vehicle, for the described length of time and the various doses, the culture medium was removed and the cells were washed (twice) with serum-free medium. Total RNA was isolated using the TRiazol-method (Gibco-BRL), and treated with DNase (Amplification Grade, GibcoBRL) in 20 mmol/l Tris-HCL (pH 8.4), 2 mmol/l MgCl2, and 50 mmol/l KCl to remove any traces of contaminating genomic DNA. RNA (2.5 μg) was then subjected to reverse transcription (RT reagents; Promega; Madison, Wis.). RT-PCR was undertaken in a volume of 50 μl of buffer containing 50 mmol/l KCl, 10 mmol/l Tris-HCl, 3.5 mmol/l MgCl2, 200 μmol/l each dNTPs, and 0.4 μmol/l each of sense and antisense primers to rat or human insulin (depending on the specific cell from which the RNA was extracted). Amplification was performed for 30 cycles at the denaturing temperature of 94° C. for 1 min, annealing temperature of 60° C. for 45 sec, and an extension temperature of 72° C. for 1 min. […] These included more irregular and variable cell shapes, with a cytoplasm less homogenous and “rougher” in appearance than control culture.
# Treatment with GLP-1 induces the differentiation of ductal epithelial cells into insulin-producing cells. FIG. 2 illustrates a series of cell cultures grown with or without GLP-1 (10 nM) for 72 h. […] Preabsorption of the antibody with an excess of human recombinant insulin prevented the staining of insulin-positive GLP-1 treated cells (data not shown). While treatment with GLP-1 turned the majority of ARIP cells into […] For β-actin, the annealing temperature was raised to 64° C. for 1 min and gene-specific primers were used. For GLP-1-receptor (GLP-R) the annealing temperature used was 55° C. All other experimental conditions to amplify GLUT2, glucokinase, and GLP-R mRNAs were identical to those described for the amplification of insulin mRNA. RT and PCR conditions for human transcripts were identical to those described for rat mRNAs.
# Southern blotting with species-specific full length cDNA probes for insulin, GLUT-2, glucokinase, GLP-1 receptor and β-actin was performed as previously described. Y. Wang, R. Perfetti, N. H. Greig, H. W. Holloway, K. A. DeOre, C. Montrose-Rafizadeh, D. Elahi, J. M. Egan, “Glucagon-like peptide-1 can reverse the age-related decline in glucose tolerance in rats.” J Clin Invest 99:2883-2889, 1997.
# PANC-1/IDX-1 cells [4] = assay: Morphological changes (hematoxylin and eosin), PANC-1/IDX-1 cells; type: cell-based, human; conditions: GLP-1 10 nM for 72 h
# Protocol: as §1, §3
# ARIP cells [5] = assay: Immunofluorescence for IDX-1, ARIP cells; type: cell-based, rat
# Protocol: as §2
# For the detection of IDX-1, slightly different conditions were used. Briefly: the concentration of paraformaldehyde was decreased to 2%, and the concentration of Triton to permeabilize the cells was raised to 0.2% Triton-X-100. Cells were then washed with 0.01 M PBS three times for 3-5 min, and non-specific binding was inhibited by using 5% chick serum in 0.01 M PBS, at room temperature for 60 min in a humid chamber. A rabbit IDX-1 antibody directed against the N-terminus of the frog homologue of the IDX-1 gene was used as the primary antibody (1:500 diluted with 0.1% Triton-X 100, 1% BSA in 0.01 M PBS), and slides were incubated at 4° C. overnight in a humid chamber. After washing, cells were incubated with a fluorescein-conjugated goat anti-rabbit IgG antibody (Molecular Probes, Inc. Eugene, Oreg.) and incubated at room temperature for 1 hour in a humid chamber. Nuclei of cells stained with anti-IDX-1 antibody were visualized with Hoechst […] dye (Sigma, St. Louis, Mo.). The percentage of IDX-1 containing cells was evaluated by counting the number of IDX-1 “positive” cells divided by the total number of cells identified by nuclear staining.
substance,measurement,setting,value
glucagon-like peptide-1 [GLP-1],insulin immunostaining,PANC-1/IDX-1 cells [1],capable of synthesizing insulin
same,IDX-1 containing cells also positive for intracellular insulin,PANC-1/IDX-1 cells [1]; double immunofluorescence,Approximately 85%
same,weakly IDX-1 positive cells not stained by anti-insulin antibody,PANC-1/IDX-1 cells [1]; double immunofluorescence,~20%
same,morphological change,ARIP cells [2],promoted the aggregation of cells in small clusters
same,time of first detection of GLUT2 mRNA,ARIP cells [3]; GLP-1 10 nM,24 h
same,time of first detection of glucokinase mRNA,ARIP cells [3]; GLP-1 10 nM,72 h
same,time of first detection of insulin mRNA,ARIP cells [3]; GLP-1 10 nM,48 h
same,lowest concentration of GLP-1 required for the initial detection of insulin mRNA,ARIP cells [3]; data not shown,1 nM
same,morphological change: cell aggregation,PANC-1/IDX-1 cells [4],further promoted the tendency of forming few-cells aggregates
same,morphological change: cell size,PANC-1/IDX-1 cells [4],increase in the size of individual cells
same,effect on expression level of IDX-1,ARIP cells [5]; GLP-1 10 nM for 72 h,further increase
same,cells expressing IDX-1,"ARIP cells [5]; GLP-1 or vehicle, 400 cells counted",approximately 70%

# Reference: patent US6642003B2, “Human glucose-dependent insulin-secreting cell line” (Cedars-Sinai Medical Center, priority 2001, dated 2003)
